Measurements reported in patent US10201623B2, “HSP90-targeted cardiac imaging and therapy” (Memorial Sloan-Kettering Cancer Center, priority 2013, dated 2019).
Values belong to the compound of their own block, whether it stands above or below them.

Columns and labels:
Hsp90 = experiment: saturation binding of 131I-PU-H71 in prostate cancer cell lines; details: several prostate cancer cell lines
heart muscle = experiment: 124I-PUH71 PET-CT cardiac imaging in patients; format: in vivo, human
Experimental: Exemplary Procedure Using ^124I-PUH71 (Compound A) The day before the administration of ^124I-PUH71, potassium iodide was administered to the subject to be imaged to minimize the amount of radioactivity in the thyroid. A dose of KI was administered before ^124I-PUH71 was injected in the vein of the arm of the subject through a catheter. A subject was typically administered one tracer-dose of ^124I-PUH71 5% ethanol and 0.9% NaCl, which is < 1/500th of the NOAEL limit derived from rodents using the cold PUH71. A dose of up to 5.5 mCi of ^124I-PUH71 were administered intravenously. ^124I-PUH71 scans were performed immediately, at 3-4 hours, 20-24 hours, and 48-72 hours after injection of the radiotracer. A 30-45 minute scanning time-period is typical for clinical PET studies. Image was acquired on a PET-CT scanner. A low-dose CT was obtained immediately prior to PET imaging; the 0-hour CT is applied to the three PET datasets rapidly-acquired during the first 30 minutes post-injection. Uptake of the PUH71 by heart muscle in 12 patients are illustrated in FIG. 2. The cardiac uptake is plotted on the y-axis, expressed in terms of the standardized uptake value (SUV), here using the SUV mean parameter. The time after injection is plotted on the x-axis, in minutes. Data shown here is from PET scans obtained 0, 10, 20 and ˜180 minutes after tracer injection. […] In 1 patient, the cardiac uptake was less distinct, but the PET imaging methodology was suboptimal compared to the other studies. […] EKG-synchronization, or ‘EKG-gating’, is standard practice in cardiac imaging, for improving the quality of heart-imaging, and it is expected that results will further improve after EKG gating is added. Without intention to be limited by theory, the bits of variation in the SUV could be due to (1) the lack of EKG-gating and (2) the lack of proper attenuation correction. […] The EKG-gating and attenuation correction techniques are standard practice in cardiac nuclear imaging art.

[1] = stability of 124I-PUH71 in formulation; format: physicochemical; details: formulated in 5% ethanol in saline (0.9%)
Description: ^124I-PUH71 was produced in formulation. The radioactive half-life is 4.2 days.

[2] = test system: MDA-MB-468 human breast cancer tumors; experiment: micro PET of 124I-PUH71 in mice bearing MDA-MB-468 tumors; format: in vivo
Experimental: FIG. 4: [^124I]-PUH71 PET in mice bearing a xenografted tumor. a) Representative PET scan of [^124I]-PUH71 in MDA-MB-468 tumor-bearing mice. Location of the tumor is indicated by a red arrow. […] Representative data is shown.
We injected mice bearing MDA-MB-468 human breast cancer tumors with trace amounts of ^124I-PUH71, and imaged with the micro PET at 1, 4 and 24 hours post injection. […] The results are illustrated in FIG. 4.

[3] = patients, single iv tracer injection, PET-CT

Structure (SMILES): CC(C)NCCCn1c(Sc2cc3c(cc2[131I])OCO3)nc2c(N)ncnc21 [^131I-PUH71]
selectivity of binding to Hsp90 (Hsp90): bound, selectively
Bmax (Hsp90; saturable binding): 3 to 7 million sites, per cell

clearance from the bloodstream (heart muscle; human): rapid clearance
absorption and retention in the human heart (heart muscle; human heart): rapid absorption and sustained retention
persistence of visually-distinct cardiac uptake (heart muscle; [3]): 3 to 4 h
time after injection at which uptake in the heart is maximized (heart muscle; [3]): less than 10 minutes
time for which cardiac signal intensity is maintained (heart muscle; [3]): ≥ 3 h
Structure (SMILES): CC(C)NCCCn1c(Sc2cc3c(cc2I)OCO3)nc2c(N)ncnc21 [Compound A]
patients whose heart musculature demonstrated visually-distinct uptake (heart muscle; PET scans 0, 10, 20 and ~180 minutes after tracer injection, no EKG-gating): 11 out of 12

stability in formulation [1]: stable, in formulation, for several days
clearance from the healthy heart ([2]; MDA-MB-468 tumor-bearing mice, heart and blood pool similar profile): rapid clearance
uptake in the heart (PET) ([2]; MDA-MB-468 tumor-bearing mice, no cardiac disease expected): no distinct uptake
retention in tumors ([2]; micro PET at 1, 4 and 24 hours post injection): retained in tumors even at 24 h p.i.
route of clearance of excess radioligand ([2]; tumor-bearing mice): cleared via the liver and GI tract
Structure (SMILES): CC(C)NCCCn1c(Sc2cc3c(cc2[124I])OCO3)nc2c(N)ncnc21 [^124I-PUH71]
